These results are taken from patent publication US5821261A, “Substituted saturated aza heterocycles as inhibitors of nitric oxide synthase” (Merck & Co., Inc., priority 1996, dated 1998).

pIC50: −log10 of the molar value. Structures can show the parent of a compound that is named as a salt.

This assay addresses Human Inducible Nitric Oxide Synthase (Homo sapiens, UniProt P35228). Nature of the assay: Inhibition of human inducible nitric oxide synthase (formation of L-[2,3,4,5-3H]citrulline from L-[2,3,4,5-3H]arginine). The format is biochemical. The settings on record: 1 μM L-Arg, pH 7.5, room temperature, 30 minutes, aqueous DMSO (max. 5%). The source says:
26, pp. 258-264. […] J Lowenstein and S. H. Snyder in Methods in Enzymology, Vol. 233, L. Packer, ed., Academic Press, NY, 1994, Ch. 26, pp. 264-269. Various assays for NOS activity have been reported in the literature and are reviewed in the following: M. E. Murphy and E. Noack in Methods in Enzymology, Vol. 233, L. Packer, ed., Academic Press, NY, 1994, Ch. 26, pp. 240-250 and J. M. Hevel and M. A. Marletta in Methods in Enzymology, Vol. 233, L. Packer, ed., Academic Press, NY, 1994, Ch. 26, pp. 250-258. Details for the assay protocols to measure NOS activity are as follows: […] The incubation buffer (100 μL) contained; 100 mM TES, pH 7.5, 5 μM FAD, 5 μM FMN, 10 μM BH4, 0.5 mM NADPH, 0.5 mM DTT, 0.5 mg/mL BSA, 2 mM CaCl2, 10 μg/mL calmodulin (bovine), 1 μM L-Arg, 0.2 μCi L-[2,3,4,5-^3 H]Arg, and the inhibitor in aqueous DMSO (max. 5%). The reaction is initiated by addition of enzyme. Incubations are performed at room temperature for 30 minutes and stopped by the addition of an equal volume of quenching buffer consisting of 200 mM sodium citrate, pH 2.2, 0.02% sodium azide. Reaction products are separated by passing through a cation exchange resin and quantitated as cpm by scintillation counting. Percent inhibition is calculated relative to enzyme incubated without inhibitor according to: […]. Illustrative of the utility of the compounds of Formula I is the ability of such compounds to inhibit NO synthase as shown in Table 1 and as measured by the assay described above: […]
`N=C(N)SC[C@@H]1CN[C@H](C(=O)O)C1` [compound 5, (4S)-4-[(Isothioureido)methyl]-L-Proline Dihydrochloride] gave a pIC50 of 3.95.

Compound `N=C(N)NC[C@@H]1CN[C@H](C(=O)O)C1` [compound 1, (4S)-4-(Guanidinomethyl)-L-Proline Dihydrochloride] had a pIC50 of 5.15. The value for `N=C(N)NC[C@H]1CN[C@H](C(=O)O)C1` [compound 2, (4R)-4-(Guanidinomethyl)-L-Proline Dihydrochloride] was 5.46; that for `N=C(N)N[C@@H]1CN[C@H](C(=O)O)C1` [compound 3, (4S)-4-Guanidino-L-Proline Dihydrochloride] was 5.57; that for `COC(=O)[C@@H]1C[C@@H](CNC(=N)N)CN1` [compound 6, (4R)-4-(Guanidinomethyl)-L-Proline Methyl Ester Dihydrochloride] was 4.96.

Usually pIC50 stands for −log10 of the IC50, conventionally taken in molar units. A low value points to a large IC50.
